Entries after “also recorded” stand apart in the source; their conditions may differ.
Columns and labels:
[1] = molecular target: T1, mutant huntingtin aggregates (HDex1Q68 fused to ECFP/EYFP) (Homo sapiens, UniProt P42858, INS38QQQQQQQQQQQQQQQQQQQQQQQQQQQQQQQQQQQQQQQQQQQQQQQ); assay: Cellular FRET aggregation assay in stable Tet-off CHO-AA8/Q68-Q68 cells; assay type: cell-based; settings: 48 h, 2% DMSO
Procedure: To determine the potential of possibly inhibiting substances the inventors performed dose response assays at concentrations ranging from 1, to 100 μM.
Screening was performed in 96-well plates (greiner bio-one) containing 1×10^4 cells/well of the stably inducible tet off cell lines htt-mut (six-fold) and CHO-AA8 line (three fold) for background control. Simultaneously, each compound was checked for its potential autofluorescence.
Two stable inducible CHO Tet off cell lines were constructed expressing simultaneously wildtype (CHO-AA8/Q17-Q17) or mutant (CHO-AA8/Q68-Q68) huntingtin fragments fused to ECFP or EYFP (FIG. 1B) after withdrawal of doxicycline (dox). Basal and induced expression levels of huntingtin fusion proteins were examined by Western blot analysis at different time intervals (4, 24, 48, and 72 hours). […] For the screening approach stable inducible huntingtin expressing cell lines were seeded in 96-well plates and the fluorescence intensities were measured with a fluorescence plate reader.
The test compounds were mixed in a fresh doxicycline-free medium with 2% DMSO and added to the Tet off cell lines two to three hours after seeding and attachment of the cells.
(§1) The FRET-measurement was performed 48 h later.
Subsequently, a second screening round was performed at concentration range 1, 3, and 10 μM, respectively.

[2] = test system: flies expressing Htt-Exon-1Q93 in all neurons; assay: Climbing assay in a Drosophila model of HD; assay type: in vivo
Procedure: (A) Expression of the htt proteins in transgenic flies is driven by the bipartite expression system upstream activator sequence (UAS)-GAL4 (yeast transcriptional activator). Stocks w; P(w^+mC; w+; elav−GAL4/CyO) and w; P(w+mC=UAS-Q93httexon1) were crossed in order to obtain flies expressing mutant htt fragments in all neurons.
(B, C) Flies expressing Htt-Exon-1Q93 were fed with khayanthone (100 μM, 250 μM) or DMSO supplemented food. Effects of khayanthone on flies' motor ability were measured with the climbing assay. For this purpose flies were placed in a vial, then the height half of them were able to climb from the bottom within 60 sec was determined. In addition the time was measured which half of them needed to climb up 6 cm. […] Each curve represents a population of ˜40 flies. Error bars represent the SD of 5 repeats on each measuring point.
Flies were mated at 25° C. in vials containing standard food supplemented with different concentrations of the compound tested. Adults were transferred to vials containing fresh food supplemented with different concentrations of khayanthone (100 μM, 250 μM, and DMSO control) every 3 days after eclosion.
Effects of khayanthone on the flies' motor ability were measured with the climbing assay. For this purpose flies were placed in a vial, then the height, which half of them were able to climb from the bottom within 60 sec, was determined. In addition, the time was measured which half of them needed to climb up 6 cm. The assays were repeated five times on each population sample.

[3] = test system: proteasome (chymotrypsin activity); assay: Proteasome activity, hydrolysis of Suc-LLVY-AMC in CHO-AA8/Tet-Off cells; assay type: cell-based; settings: 24 h
Procedure: The concentration-dependent effect of khayanthone, 17-AAG, Gedunin, and Lactacystin on proteasome activity was tested using a non-recombinant CHO Tet-Off cell line. Cells were incubated with the given compounds for 24 h. Subsequently, proteasome activities were measured by a fluoroscan according to the degradation rate of a fluorogenic substrate (Suc-LLVY-AMC). In correlation to DMSO treated controls khayanthone led to an increase of proteasome activity about 40-50% in CHO-AA8/Tet-Off cells.
To confirm this we examined the chymotrypsin activity of the proteasome under the influence of khayanthone and compared data with known substances influencing the proteasomes' activity (gedunin, lactacystin, 17-AAG) (FIG. 4). Adminstration of the selected substances was performed for 24 h, and subsequently chymotrypsin activity of the UPS was determined by measuring the hydrolysis of a fluorogenic reporter (Suc-LLVY-AMC, Biomol).

[4] = molecular target: T1, mutant huntingtin aggregates (HDex1Q68 fused to ECFP/EYFP); assay: Cellular FRET aggregation assay in stable Tet-off CHO-AA8/Q68-Q68 cells; assay type: cell-based
CHO-AA8/Q68-Q68 cells = assay: Propidium iodide exclusion assay (viability, cell number) following the FRET assay
Procedure: CHO-AA8/Q68-Q68, CHO-AA8/Q17-Q17 and CHO-AA8 cells were seeded in 96 well plates. After attachment of the cells, the medium was exchanged for Ham's F 12 medium containing 10% doxicycline free FBS and 2% DMSO supplemented with compounds. After 48 h the fluorescence intensities of cells were measured using a fluorescence plate reader (Fluoroscan Ascent, Thermo Scietific) and filtersets for CFP (ex 444 nm, em 485 nm), YFP(ex 485 nm, em 538 nm) and FRET (ex 444 nm, em 538 nm). After correction of background fluorescence (subtraction of CHO-AA8 cell fluorescence intensities) the FRET signal was determined using the method: FA=(FRET-a*YFP)/CFP with a=0.11 (Zal u. Gascoigne 2004, Zal et al. 2002). In following, the viability of cells was measured using a propidium iodide exclusion assay (Sattler et al. 1997). PI was added to the cells at final concentration of 0.15 mg/ml. After 15 minutes the PI fluorescence intensity was measured (ex 530 nm, em 620 nm). The cells were then lysed with 0.5% Triton X-100 (TX100) and the PI fluorescence intensity was measured again. Viability of cells was calculated as viability=1−(PIbefore TX100/PIafter TX100).
as §1

HSP90 = assay: Western blot of heat shock protein expression in SH-SY5Y cells; assay type: cell-based; settings: SH-SY5Y cell line, increasing concentration
Procedure: (§2) Utilizing Western-blot analysis concentration-dependent effects of khayanthone on protein expression of HSP40, HSP70, and HSP90 were detected. Immuno detection was performed using HSP specific monoclonal antibodies, respectively.
(§3) We examined effects of khayanthone on the expression of heat shock proteins, preferentially HSP40, HSP70 and HSP90, because of their impacts in neurodegenerative disease and cancer. Heat shock protein expression was determined in neuronal cells (SH-SY5Y cell line) by western blot analysis.

HSP70 = assay: as above; assay type: cell-based; settings: SH-SY5Y cell line, increasing concentration
Procedure: as §2, §3

HSP40 = assay: as above; assay type: cell-based; settings: SH-SY5Y cell line, increasing concentration
Procedure: as §2, §3

[5] = after day 18, food with 100 μM, 250 μM

T1 sequence (P42858 1-88, stated change not applied): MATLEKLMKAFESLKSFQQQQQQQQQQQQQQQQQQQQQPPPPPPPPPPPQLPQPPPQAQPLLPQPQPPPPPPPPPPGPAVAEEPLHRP

Structure (SMILES): CC(=O)O[C@H]1C[C@@H](OC(C)=O)C(C)(C)C2C[C@@H](OC(C)=O)[C@]3(C)C(CC[C@@]4(C)[C@H]([C@H]5CCOC5)C(=O)[C@H]5O[C@]543)[C@]21C (stereo partly shown) [S1, khayanthone]
- FRET-signal (effect in words) [1]: decreases
- climbing distance in 60 sec (height half of the flies climb) [2, 5]: ~50 % of the initial distance
- time half of the flies need for a 6 cm distance [2, 5]: 2.3 times of the initial time
- difference in climbing between treated and untreated flies ([2]; until day 18): no detectable difference
- motor ability / mobility compared to DMSO treated flies (in words) ([2]; with increasing age, food with 100 μM, 250 μM): improves significantly motor deficits; also recorded: maintain an improved mobility
- highest chymotrypsin activity ([3]; 1 μM): about 40%
- chymotrypsin activities (decline with increasing concentrations) ([3]; 3, 10 μM): ~10%
- increase of proteasome activity ([3]; CHO-AA8/Tet-Off cells, in correlation to DMSO treated controls): 40-50%
- Number of mutant huntingtin aggregates (fluorescence microscopy images) [4]: decrease with increasing compound concentration
- Cell number (effect in words) (CHO-AA8/Q68-Q68 cells): unaffected
- HSP90 protein expression (HSP90): decreased expression; also recorded: slight decrease
- HSP70 protein expression (HSP70): decreased expression; also recorded: slight decrease
- HSP40 protein expression (HSP40): decreased expression; also recorded: slight decrease
